Legend:
Plasmodium falciparum [1] = assay: Resistance index, ratio of IC50 for Plasmodium falciparum K1 to IC50 for Plasmodium falciparum 3D7; type: functional
Plasmodium falciparum [2] = assay: Antiplasmodial activity against Plasmodium falciparum 3D7 infected in erythrocytes assessed as [3H]hypoxanthine incorporation after 24 hrs by microbeta scintillation counting analysis; type: functional, organism-based
Plasmodium falciparum [3] = assay: Antiplasmodial activity against Plasmodium falciparum K1 infected in erythrocytes assessed as [3H]hypoxanthine incorporation after 24 hrs by microbeta scintillation counting analysis; type: functional, organism-based
[4] = Inhibition of beta-haematin complex formation after 60 mins by spectrophotometry relative to chloroquine; type: physicochemical

With `CN(CCCNc1ccnc2cc(Cl)ccc12)Cc1cc(=O)c(O)cn1C1CC1` the Ratio IC50 (Plasmodium falciparum [1]) was 1.5, the IC50 (Plasmodium falciparum [2]) was 170 nM and the IC50 (Plasmodium falciparum [3]) was 360 nM. For the same molecule, the IC50 [4] was 5.24 equiv.

With `O=c1cc(CNCCCNc2ccnc3cc(Cl)ccc23)n(C2CC2)cc1OCc1ccccc1` the “Ratio IC50” value (Plasmodium falciparum [1]) was 7.1, the IC50 (Plasmodium falciparum [2]) was 190 nM and the IC50 (Plasmodium falciparum [3]) was 1710 nM. For the same molecule, the IC50 [4] was 0.22 equiv.

With `CN(CCCNc1ccnc2cc(Cl)ccc12)Cc1cc(=O)c(O)cn1C` the Ratio IC50 (Plasmodium falciparum [1]) was 1, the IC50 (Plasmodium falciparum [2]) was 40 nM and the IC50 (Plasmodium falciparum [3]) was 270 nM. It also gave an IC50 [4] of 1.95 equiv.

With `Cn1cc(OCc2ccccc2)c(=O)cc1CNCCNc1ccnc2cc(Cl)ccc12` the “Ratio IC50” value (Plasmodium falciparum [1]) was 4.7, the IC50 (Plasmodium falciparum [2]) was 540 nM and the IC50 (Plasmodium falciparum [3]) was 2560 nM. The IC50 [4] was 1.27 equiv.

In the case of `Cn1cc(OCc2ccccc2)c(=O)cc1CNCCCCNc1ccnc2cc(Cl)ccc12`, the “Ratio IC50” value (Plasmodium falciparum [1]) is reported as 2.2, the IC50 (Plasmodium falciparum [2]) is reported as 240 nM and the IC50 (Plasmodium falciparum [3]) is reported as 270 nM. It also gave an IC50 [4] of 0.42 equiv.

For `O=c1cc(CNCCNc2ccnc3cc(Cl)ccc23)n(C2CC2)cc1OCc1ccccc1`, the “Ratio IC50” value (Plasmodium falciparum [1]) was 1, the IC50 (Plasmodium falciparum [2]) was 210 nM and the IC50 (Plasmodium falciparum [3]) was 40 nM. It also gave an IC50 [4] of 0.56 equiv.

With `Cn1cc(OCc2ccccc2)c(=O)cc1CNCCCNc1ccnc2cc(Cl)ccc12` the “Ratio IC50” value (Plasmodium falciparum [1]) was 3, the IC50 (Plasmodium falciparum [2]) was 300 nM and the IC50 (Plasmodium falciparum [3]) was 1750 nM. For the same molecule, the IC50 [4] was 1.3 equiv.

Work on `Cn1cc(O)c(=O)cc1CNCCNc1ccnc2cc(Cl)ccc12` yielded a Ratio IC50 (Plasmodium falciparum [1]) of 3, an IC50 (Plasmodium falciparum [2]) of 580 nM and an IC50 (Plasmodium falciparum [3]) of 1450 nM. The IC50 [4] was 0.63 equiv.

In the case of `CN(CCCNc1ccnc2cc(Cl)ccc12)Cc1cc(=O)c(OCc2ccccc2)cn1C`, the “Ratio IC50” value (Plasmodium falciparum [1]) is reported as 6.9, the IC50 (Plasmodium falciparum [2]) is reported as 390 nM and the IC50 (Plasmodium falciparum [3]) is reported as 2080 nM. For the same molecule, the IC50 [4] was 1.98 equiv.

For `O=c1cc(CNCCCCCCNc2ccnc3cc(Cl)ccc23)n(C2CC2)cc1OCc1ccccc1`, the Ratio IC50 (Plasmodium falciparum [1]) was 7.5, the IC50 (Plasmodium falciparum [2]) was 4 nM and the IC50 (Plasmodium falciparum [3]) was 320 nM. The IC50 [4] was 0.071 equiv.

In the case of `Cn1cc(O)c(=O)cc1CNCCCCNc1ccnc2cc(Cl)ccc12`, the Ratio IC50 (Plasmodium falciparum [1]) is reported as 0.1, the IC50 (Plasmodium falciparum [2]) is reported as 670 nM and the IC50 (Plasmodium falciparum [3]) is reported as 720 nM.

With `CCN(CC)CCCC(C)Nc1ccnc2cc(Cl)ccc12` (configuration not stated) [CHLOROQUINE] the IC50 [4] was 1.9 equiv.

Molecule `O=c1cc(CNCCCCNc2ccnc3cc(Cl)ccc23)n(C2CC2)cc1O` has a Ratio IC50 (Plasmodium falciparum [1]) of 2.1, an IC50 (Plasmodium falciparum [2]) of 4 nM and an IC50 (Plasmodium falciparum [3]) of 30 nM. For the same molecule, the IC50 [4] was 2.57 equiv.

Work on `Cn1cc(O)c(=O)cc1CNCCCNc1ccnc2cc(Cl)ccc12` yielded a Ratio IC50 (Plasmodium falciparum [1]) of 2.2, an IC50 (Plasmodium falciparum [2]) of 120 nM and an IC50 (Plasmodium falciparum [3]) of 360 nM. It also gave an IC50 [4] of 6.12 equiv.

With `O=c1cc(CNCCNc2ccnc3cc(Cl)ccc23)n(C2CC2)cc1O` the Ratio IC50 (Plasmodium falciparum [1]) was 1.6, the IC50 (Plasmodium falciparum [2]) was 300 nM and the IC50 (Plasmodium falciparum [3]) was 460 nM. The IC50 [4] was 1.41 equiv.

For `CN(CCCNc1ccnc2cc(Cl)ccc12)Cc1cc(=O)c(OCc2ccccc2)cn1C1CC1`, the “Ratio IC50” value (Plasmodium falciparum [1]) was 0.1, the IC50 (Plasmodium falciparum [2]) was 150 nM and the IC50 (Plasmodium falciparum [3]) was 70 nM.

With `C[C@@H]1CC[C@H]2[C@@H](C)C(=O)O[C@@H]3O[C@@]4(C)CC[C@@H]1[C@]32OO4` [ARTEMISININ] the “Ratio IC50” value (Plasmodium falciparum [1]) was 0.4, the IC50 (Plasmodium falciparum [2]) was 9 nM and the IC50 (Plasmodium falciparum [3]) was 4 nM.

`Cn1cc(O)c(=O)cc1CNCCCCCCNc1ccnc2cc(Cl)ccc12` gave a Ratio IC50 (Plasmodium falciparum [1]) of 1.7, an IC50 (Plasmodium falciparum [2]) of 150 nM and an IC50 (Plasmodium falciparum [3]) of 970 nM. The IC50 [4] was 0.7 equiv.

In the case of `Cn1cc(OCc2ccccc2)c(=O)cc1CNCCCCCCNc1ccnc2cc(Cl)ccc12`, the “Ratio IC50” value (Plasmodium falciparum [1]) is reported as 0.4, the IC50 (Plasmodium falciparum [2]) is reported as 40 nM and the IC50 (Plasmodium falciparum [3]) is reported as 150 nM. It also gave an IC50 [4] of 0.51 equiv.

In the case of `O=c1cc(CNCCCCCCNc2ccnc3cc(Cl)ccc23)n(C2CC2)cc1O`, the “Ratio IC50” value (Plasmodium falciparum [1]) is reported as 2.7, the IC50 (Plasmodium falciparum [2]) is reported as 30 nM and the IC50 (Plasmodium falciparum [3]) is reported as 80 nM. For the same molecule, the IC50 [4] was 1.39 equiv.

`O=c1cc(CNCCCNc2ccnc3cc(Cl)ccc23)n(C2CC2)cc1O` showed a Ratio IC50 (Plasmodium falciparum [1]) of 3.6, an IC50 (Plasmodium falciparum [2]) of 160 nM and an IC50 (Plasmodium falciparum [3]) of 850 nM. It also gave an IC50 [4] of 2.62 equiv.

Work on `O=c1cc(CNCCCCNc2ccnc3cc(Cl)ccc23)n(C2CC2)cc1OCc1ccccc1` yielded a Ratio IC50 (Plasmodium falciparum [1]) of 5.3, an IC50 (Plasmodium falciparum [2]) of 160 nM and an IC50 (Plasmodium falciparum [3]) of 320 nM. For the same molecule, the IC50 [4] was 0.82 equiv.

Source: ChEMBL document CHEMBL3352080, “Kojic acid derived hydroxypyridinone-chloroquine hybrids: synthesis, crystal structure, antiplasmodial activity and β-haematin inhibition” (Bioorg Med Chem Lett, 2014)
